Data as given in US20080064040A1, “Monitoring gene silencing and annotating gene function in living cells” (Odyssey Thera, Inc., priority 2003, published 2008).

System: phosphorylation of the ERK1 and ERK2 protein kinases
Experiment: Phospho-ERK (T202/Tyr204) immunofluorescence in EGF-treated HEK 293T cells
Format: cell-based, human
Settings: EGF vs unstimulated cells, FIG. 11B
Method: Cells are transfected with a collection of siRNAs, and cultured for 48 hours before fixing. Fixed cells are probed with antibodies that specifically recognize the MAPK/ERK protein kinases only when they are phosphorylated on Threonine 202 and Tyrosine 204 in the activation loop. […] Changes in the level and sub-cellular localization of phosphorylated proteins following treatment with an annotation reagent (here siRNA) indicates a functional connection between the annotation reagent and the target of interest. […] Here, 24 individual siRNA pools were transfected into human HEK cells, and their effects on the phosphorylation of the ERK1 and ERK2 protein kinases was assessed by immunofluorescence analysis.
Human HEK 293T cells were plated at 12,000 cells/well, and transfected with 40 ng of siRNA pools targeting the indicated proteins using Lipofectamine 2000 (Invitrogen, Carlsbad Calif.). 24 hours after transfection, cells were cultured in 0.25% serum for 24 hours, then treated with EGF (Sigma; 100 ng/ml) for 5 minutes prior to fixation. For immunofluorescence, cells were rinsed with PBS, fixed with 4% formaldehyde in PBS, and permeabilized using 0.25% Triton X-100. Non-specific immunoreactivity was blocked by incubating cells with 3% BSA in PBS. […] Automated fluorescence image acquisition was carried out using Discovery-1 (Universal Imaging/Molecular Devices).

EGF: epidermal growth factor (Sigma), stimulus for ERK phosphorylation (NSDSECPLSHDGYCLHDGVCMYIEALDKYACNCVVGYIGERCQYRDLKWWELR; UniProt P01133 971-1023, looked up)
level of phosphorylated ERK after growth factor treatment: large increase in phosphorylated ERK
